Results taken from ChEMBL document CHEMBL5696441 (Nat Chem Biol, 2011).
Active and inactive are the calls of the source. The calls are words filed in the database; no cut-off is given here.

Experiments:
[1] = target: Calcium/calmodulin-dependent protein kinase type 1G (Homo sapiens) (UniProt Q96NX5); assay: Inhibition of CAMK1G (unknown origin) assessed as remaining activity at 1 uM by Kinome scan method relative to control
[2] = target: Dual specificity protein kinase CLK4 (Homo sapiens) (UniProt Q9HAZ1); assay: Inhibition of CLK4 (unknown origin) assessed as remaining activity at 1 uM by Kinome scan method relative to control
[3] = target: Discoidin domain-containing receptor 2 (Homo sapiens) (UniProt Q16832); assay: Inhibition of DDR2 (unknown origin) assessed as remaining activity at 1 uM by Kinome scan method relative to control
[4] = tested on: Epidermal growth factor receptor (Homo sapiens), P00533 [L861Q]; assay: Inhibition of EGFR L861Q mutant (unknown origin) assessed as remaining activity at 1 uM by Kinome scan method relative to control
[5] = target: Mitogen-activated protein kinase 3 (Homo sapiens) (UniProt P27361); assay: Inhibition of ERK1 (unknown origin) assessed as remaining activity at 1 uM by Kinome scan method relative to control
[6] = tested on: eIF-2-alpha kinase GCN2 (Homo sapiens), Q9P2K8 [S808G]; assay: Inhibition of GCN2 S808G mutant kinase domain 2 (unknown origin) assessed as remaining activity at 1 uM by Kinome scan method relative to control
Chain of eIF-2-alpha kinase GCN2 (Homo sapiens), Q9P2K8 [S808G] (Q9P2K8 whole entry S808G, the tested form may be a part): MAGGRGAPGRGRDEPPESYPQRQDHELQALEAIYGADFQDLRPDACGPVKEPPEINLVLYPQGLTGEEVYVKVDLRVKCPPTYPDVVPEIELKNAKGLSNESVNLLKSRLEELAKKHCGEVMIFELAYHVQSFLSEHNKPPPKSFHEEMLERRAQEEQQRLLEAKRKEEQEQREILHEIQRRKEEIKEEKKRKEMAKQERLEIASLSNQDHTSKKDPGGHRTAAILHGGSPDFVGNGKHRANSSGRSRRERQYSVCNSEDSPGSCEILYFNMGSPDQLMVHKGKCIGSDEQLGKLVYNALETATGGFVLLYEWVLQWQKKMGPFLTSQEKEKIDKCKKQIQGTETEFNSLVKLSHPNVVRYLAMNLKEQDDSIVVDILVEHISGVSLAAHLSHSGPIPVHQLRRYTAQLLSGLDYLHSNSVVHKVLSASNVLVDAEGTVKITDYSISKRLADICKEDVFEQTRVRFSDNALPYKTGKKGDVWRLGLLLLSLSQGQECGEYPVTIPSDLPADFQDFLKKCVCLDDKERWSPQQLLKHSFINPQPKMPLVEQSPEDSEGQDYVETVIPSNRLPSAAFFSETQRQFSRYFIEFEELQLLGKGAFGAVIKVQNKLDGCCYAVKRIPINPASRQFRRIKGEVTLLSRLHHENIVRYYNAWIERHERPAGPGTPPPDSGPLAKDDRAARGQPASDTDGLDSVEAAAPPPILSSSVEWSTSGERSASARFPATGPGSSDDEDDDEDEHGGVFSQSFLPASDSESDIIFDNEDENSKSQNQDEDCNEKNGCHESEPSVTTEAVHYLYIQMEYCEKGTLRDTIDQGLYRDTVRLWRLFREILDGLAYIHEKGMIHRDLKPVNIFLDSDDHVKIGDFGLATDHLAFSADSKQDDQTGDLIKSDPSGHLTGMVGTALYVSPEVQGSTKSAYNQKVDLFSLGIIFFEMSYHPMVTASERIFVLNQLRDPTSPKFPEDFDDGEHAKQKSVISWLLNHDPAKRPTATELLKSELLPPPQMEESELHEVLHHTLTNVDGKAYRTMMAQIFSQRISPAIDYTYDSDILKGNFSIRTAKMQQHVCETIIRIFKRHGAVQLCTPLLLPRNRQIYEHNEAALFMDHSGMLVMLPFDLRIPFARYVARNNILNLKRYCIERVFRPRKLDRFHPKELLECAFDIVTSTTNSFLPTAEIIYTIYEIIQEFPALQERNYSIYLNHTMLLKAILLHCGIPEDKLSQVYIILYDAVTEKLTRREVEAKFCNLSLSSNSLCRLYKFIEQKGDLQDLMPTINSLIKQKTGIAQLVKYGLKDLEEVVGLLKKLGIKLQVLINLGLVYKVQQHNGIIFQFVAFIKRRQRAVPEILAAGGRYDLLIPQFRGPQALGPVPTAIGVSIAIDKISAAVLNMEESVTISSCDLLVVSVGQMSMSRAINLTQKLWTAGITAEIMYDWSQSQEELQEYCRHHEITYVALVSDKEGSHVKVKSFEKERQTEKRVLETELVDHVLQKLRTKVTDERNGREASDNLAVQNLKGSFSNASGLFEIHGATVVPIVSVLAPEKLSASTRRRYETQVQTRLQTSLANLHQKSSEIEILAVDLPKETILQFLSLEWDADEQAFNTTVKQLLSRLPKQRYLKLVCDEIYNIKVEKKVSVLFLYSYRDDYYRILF

[7] = target: Serine/threonine-protein kinase PAK 4 (Homo sapiens) (UniProt O96013); assay: Inhibition of PAK4 (unknown origin) assessed as remaining activity at 1 uM by Kinome scan method relative to control
[8] = target: STE20-like serine/threonine-protein kinase (Homo sapiens) (UniProt Q9H2G2); assay: Inhibition of SLK (unknown origin) assessed as remaining activity at 1 uM by Kinome scan method relative to control
[9] = target: Mitogen-activated protein kinase kinase kinase 7 (Homo sapiens) (UniProt O43318); assay: Inhibition of TAK1 (unknown origin) assessed as remaining activity at 1 uM by Kinome scan method relative to control
[10] = target: Tyrosine-protein kinase Blk (Homo sapiens) (UniProt P51451); assay: Inhibition of human BLK assessed as residual activity at 1 uM using polyEY as substrate in presence of 33P-ATP by ProQinase assay relative to control
[11] = target: Calcium/calmodulin-dependent protein kinase type II subunit beta (Homo sapiens) (UniProt Q13554); assay: Inhibition of human CAMK2B assessed as residual activity at 1 uM using RBER-CHKtide as substrate in presence of 33P-ATP by ProQinase assay relative to control
[12] = target: CDK8/Cyclin C (Homo sapiens) (UniProt P49336+P24863); assay: Inhibition of human CDK8/CyclinC assessed as residual activity at 1 uM using RBER-CHKtide as substrate in presence of 33P-ATP by ProQinase assay relative to control; assay type: protein-complex assay
[13] = target: Casein kinase I isoform alpha (Homo sapiens) (UniProt P48729); assay: Inhibition of human CK1alpha1 assessed as residual activity at 1 uM using casein as substrate in presence of 33P-ATP by ProQinase assay relative to control
[14] = target: Ephrin type-A receptor 2 (Homo sapiens) (UniProt P29317); assay: Inhibition of human EPHA2 assessed as residual activity at 1 uM using polyEy as substrate in presence of 33P-ATP by ProQinase assay relative to control
Chain of Ephrin type-A receptor 2 (Homo sapiens) (P29317 whole entry): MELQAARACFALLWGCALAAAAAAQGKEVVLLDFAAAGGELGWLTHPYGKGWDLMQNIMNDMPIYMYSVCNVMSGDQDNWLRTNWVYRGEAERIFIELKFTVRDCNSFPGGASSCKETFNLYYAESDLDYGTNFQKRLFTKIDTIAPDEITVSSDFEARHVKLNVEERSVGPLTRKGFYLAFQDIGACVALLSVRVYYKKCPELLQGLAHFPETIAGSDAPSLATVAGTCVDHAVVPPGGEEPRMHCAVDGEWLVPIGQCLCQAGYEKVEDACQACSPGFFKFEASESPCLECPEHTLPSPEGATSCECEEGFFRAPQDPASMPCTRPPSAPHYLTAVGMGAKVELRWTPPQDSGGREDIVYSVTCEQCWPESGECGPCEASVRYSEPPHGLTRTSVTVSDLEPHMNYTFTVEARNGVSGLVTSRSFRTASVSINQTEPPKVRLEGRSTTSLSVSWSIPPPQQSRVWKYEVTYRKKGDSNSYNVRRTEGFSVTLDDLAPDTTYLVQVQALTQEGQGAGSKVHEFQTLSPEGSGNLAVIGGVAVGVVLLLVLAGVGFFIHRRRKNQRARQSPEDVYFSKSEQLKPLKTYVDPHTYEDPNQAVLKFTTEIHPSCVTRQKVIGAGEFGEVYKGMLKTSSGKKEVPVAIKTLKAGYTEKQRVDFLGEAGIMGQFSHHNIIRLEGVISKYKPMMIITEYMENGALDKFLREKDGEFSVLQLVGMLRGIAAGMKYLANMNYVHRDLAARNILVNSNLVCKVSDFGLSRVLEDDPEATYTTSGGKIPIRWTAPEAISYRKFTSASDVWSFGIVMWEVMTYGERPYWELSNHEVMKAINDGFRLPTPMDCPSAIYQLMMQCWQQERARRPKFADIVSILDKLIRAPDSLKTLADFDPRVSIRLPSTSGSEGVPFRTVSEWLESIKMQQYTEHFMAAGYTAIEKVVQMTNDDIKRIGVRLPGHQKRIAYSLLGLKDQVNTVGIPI

[15] = target: Ephrin type-A receptor 5 (Homo sapiens) (UniProt P54756); assay: Inhibition of human EPHA5 assessed as residual activity at 1 uM using polyEY as substrate in presence of 33P-ATP by ProQinase assay relative to control
[16] = target: Tyrosine-protein kinase JAK2 (Homo sapiens) (UniProt O60674); assay: Inhibition of human JAK2 assessed as residual activity at 1 uM using poly(Ala,Glu,Lys,Tyr)6:2:5:1 as substrate in presence of 33P-ATP by ProQinase assay relative to control
[17] = tested on: Hepatocyte growth factor receptor (Homo sapiens), P08581 [D1228N]; assay: Inhibition of human MET D1228N mutant assessed as residual activity at 1 uM using poly(Ala,Glu,Lys,Tyr)6:2:5:1 as substrate in presence of 33P-ATP by ProQinase assay relative to control
[18] = target: Platelet-derived growth factor receptor alpha (Homo sapiens) (UniProt P16234); assay: Inhibition of human PDGFRalpha assessed as residual activity at 1 uM using Poly(Ala,Glu,Lys,Tyr)6:2:5:1 as substrate in presence of 33P-ATP by ProQinase assay relative to control
Chain of Platelet-derived growth factor receptor alpha (Homo sapiens) (P16234 whole entry): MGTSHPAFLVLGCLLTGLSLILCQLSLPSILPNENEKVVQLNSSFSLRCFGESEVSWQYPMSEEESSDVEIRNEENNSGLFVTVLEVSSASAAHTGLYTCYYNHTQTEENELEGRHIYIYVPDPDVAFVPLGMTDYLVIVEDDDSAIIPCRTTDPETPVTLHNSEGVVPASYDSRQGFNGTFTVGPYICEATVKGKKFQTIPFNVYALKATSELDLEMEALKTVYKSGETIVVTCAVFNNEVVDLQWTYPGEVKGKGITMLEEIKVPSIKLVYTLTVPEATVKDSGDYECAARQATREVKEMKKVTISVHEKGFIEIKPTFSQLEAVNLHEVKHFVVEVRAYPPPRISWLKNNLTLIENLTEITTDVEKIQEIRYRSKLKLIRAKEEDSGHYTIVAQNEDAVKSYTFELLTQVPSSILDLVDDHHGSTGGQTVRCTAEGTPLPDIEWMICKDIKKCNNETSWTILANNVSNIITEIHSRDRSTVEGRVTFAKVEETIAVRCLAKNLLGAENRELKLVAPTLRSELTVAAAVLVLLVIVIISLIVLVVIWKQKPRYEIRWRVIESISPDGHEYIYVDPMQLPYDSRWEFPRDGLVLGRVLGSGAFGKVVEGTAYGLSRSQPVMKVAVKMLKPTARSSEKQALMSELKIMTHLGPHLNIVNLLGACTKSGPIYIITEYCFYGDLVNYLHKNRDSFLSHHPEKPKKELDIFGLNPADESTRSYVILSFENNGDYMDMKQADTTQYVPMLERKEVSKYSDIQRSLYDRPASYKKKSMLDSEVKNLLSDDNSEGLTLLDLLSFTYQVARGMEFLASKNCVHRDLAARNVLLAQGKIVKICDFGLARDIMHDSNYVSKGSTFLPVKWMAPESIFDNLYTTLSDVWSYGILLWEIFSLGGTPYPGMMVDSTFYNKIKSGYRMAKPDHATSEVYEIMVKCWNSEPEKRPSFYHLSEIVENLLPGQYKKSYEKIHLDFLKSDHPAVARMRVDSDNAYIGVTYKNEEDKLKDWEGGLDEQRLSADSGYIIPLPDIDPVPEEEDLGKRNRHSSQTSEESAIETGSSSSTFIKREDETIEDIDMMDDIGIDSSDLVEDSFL

[19] = target: Platelet-derived growth factor receptor beta (Homo sapiens) (UniProt P09619); assay: Inhibition of human PDGFRbeta assessed as residual activity at 1 uM using poly(Ala,Glu,Lys,Tyr) as substrate in presence of 33P-ATP by ProQinase assay relative to control
[20] = target: Protein kinase C beta type (Homo sapiens) (UniProt P05771); assay: Inhibition of human PKCbeta1 assessed as residual activity at 1 uM using 3xChocktide-PKC(19-31) as substrate in presence of 33P-ATP by ProQinase assay relative to control
[21] = target: SRSF protein kinase 1 (Homo sapiens) (UniProt Q96SB4); assay: Inhibition of human SRPK1 assessed as residual activity at 1 uM using MBP as substrate in presence of 33P-ATP by ProQinase assay relative to control
Chain of SRSF protein kinase 1 (Homo sapiens) (Q96SB4 whole entry): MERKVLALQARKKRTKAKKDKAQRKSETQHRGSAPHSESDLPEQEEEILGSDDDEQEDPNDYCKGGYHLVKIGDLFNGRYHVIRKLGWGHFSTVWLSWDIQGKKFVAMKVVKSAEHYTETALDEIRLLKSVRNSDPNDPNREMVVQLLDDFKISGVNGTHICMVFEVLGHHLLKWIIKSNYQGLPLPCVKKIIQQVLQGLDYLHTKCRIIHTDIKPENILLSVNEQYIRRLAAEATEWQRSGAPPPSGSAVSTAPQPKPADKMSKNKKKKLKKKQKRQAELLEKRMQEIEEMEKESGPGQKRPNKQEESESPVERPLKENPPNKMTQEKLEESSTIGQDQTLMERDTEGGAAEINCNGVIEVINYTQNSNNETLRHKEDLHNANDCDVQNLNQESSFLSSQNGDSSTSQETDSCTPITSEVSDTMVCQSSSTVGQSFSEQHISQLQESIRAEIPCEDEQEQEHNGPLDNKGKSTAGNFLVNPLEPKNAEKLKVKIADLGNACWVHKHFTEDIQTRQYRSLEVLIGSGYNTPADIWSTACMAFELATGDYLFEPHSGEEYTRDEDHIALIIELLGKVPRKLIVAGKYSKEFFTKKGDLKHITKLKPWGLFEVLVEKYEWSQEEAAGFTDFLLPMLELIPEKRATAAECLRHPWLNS

[22] = target: Serine/threonine-protein kinase 25 (Homo sapiens) (UniProt O00506); assay: Inhibition of human STK25 assessed as residual activity at 1 uM using casein as substrate in presence of 33P-ATP by ProQinase assay relative to control
[23] = target: Tyrosine-protein kinase receptor TYRO3 (Homo sapiens) (UniProt Q06418); assay: Inhibition of human TYRO3 assessed as residual activity at 1 uM using PolyEY as substrate in presence of 33P-ATP by ProQinase assay relative to control
[24] = target: Mitogen-activated protein kinase kinase kinase 20 (Homo sapiens) (UniProt Q9NYL2); assay: Inhibition of human ZAK assessed as residual activity at 1 uM using MBP as substrate in presence of 33P-ATP by ProQinase assay relative to control
[25] = Anti-inflammatory activity against human derived medium respond PBMC cells assessed as inhibition in stimulated IL-6 cytokine release incubated for 2 hrs in the presence of LPS/SEB/aCD28 by Luminex based sandwich immunoassay; assay type: functional, cell-based
[26] = Anti-inflammatory activity against human derived medium respond PBMC cells assessed as inhibition in stimulated IL-1alpha cytokine release incubated for 2 hrs in the presence of LPS/SEB/aCD28 by Luminex based sandwich immunoassay; assay type: functional, cell-based
[27] = target: MAP kinase p38 (Homo sapiens) (UniProt O15264+Q15759+Q16539+P53778); assay: Inhibition of p38-MAPK in human THP-1 cells assessed as change in HSP27 phosphorylation at Ser82 level at 80 nM preincubated for 30 mins in the presence of TNFalpha stimulation for 20 mins by western blot analysis; assay type: cell-based

Chain of Calcium/calmodulin-dependent protein kinase type 1G (Homo sapiens) (Q96NX5 whole entry): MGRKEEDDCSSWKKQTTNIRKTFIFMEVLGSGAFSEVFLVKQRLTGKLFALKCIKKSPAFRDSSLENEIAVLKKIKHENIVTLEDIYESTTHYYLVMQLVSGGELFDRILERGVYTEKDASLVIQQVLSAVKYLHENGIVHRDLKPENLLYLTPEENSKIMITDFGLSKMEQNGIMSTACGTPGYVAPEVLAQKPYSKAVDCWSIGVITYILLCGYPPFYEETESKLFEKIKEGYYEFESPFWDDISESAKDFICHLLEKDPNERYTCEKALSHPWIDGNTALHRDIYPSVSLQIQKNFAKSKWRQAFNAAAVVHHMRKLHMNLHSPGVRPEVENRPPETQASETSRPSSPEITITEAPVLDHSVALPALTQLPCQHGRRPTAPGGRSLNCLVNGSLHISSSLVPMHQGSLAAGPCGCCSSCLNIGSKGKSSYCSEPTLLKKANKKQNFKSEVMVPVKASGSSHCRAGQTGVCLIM

O=C1c2ccc(Nc3ccc(F)cc3F)cc2CCc2ccc(OC[C@H](O)CO)cc21 [Skepinone-L]
Activity [1]: 96% | Activity [2]: 100% | Activity [3]: 100% | Activity [4]: 72% | Activity [5]: 100% | Activity [6]: 100% | Activity [7]: 100% | Activity [8]: 100% | Activity [9]: 100% | Activity [10]: 107% | Activity [11]: 86% | Activity [12]: 105% | Activity [13]: 97% | Activity [14]: 119% | Activity [15]: 132% | Activity [16]: 90% | Activity [17]: 95% | Activity [18]: 91% | Activity [19]: 96% | Activity [20]: 103% | Activity [21]: 100% | Activity [22]: 100% | Activity [23]: 108% | Activity [24]: 98% | IC50 [25]: 780 nM | IC50 [26]: 370 nM | inhibition [27]: Active
